“And” between values parts separate entries of the source, which are not always exact repeats. Identical values can stand only once.
Columns and labels:
Type in all cases: physicochemical
[1] = High-temperature color development rate (A35/A23×100), temperature dependency
Procedure: (§1) • [1] Maximum Absorption Wavelength (λmax): The maximum absorption wavelength after color development, measured using a spectrophotometer (instantaneous multichannel photodetector MCPD3000) manufactured by Otsuka Electronics Co., Ltd. was used as an indicator for the color tone during the color development. • [2] 23°C Color Optical Density (A23): A difference between an absorbancy measured after light irradiation at 23°C for 240 seconds {ε(240)} and an absorbancy without light irradiation ε(0) at the maximum absorption wavelength was used as an indicator for the color optical density. […] 35°C Color Optical Density (A35): A difference between an absorbancy measured after light irradiation at 35°C for 240 seconds {ε(240)} and an absorbancy without light irradiation ε(0) at the first and second absorption wavelengths was used as an indicator for the color optical density. […] 23°C color fading half-life [τ1/2 (sec.)]: A time required for the absorbancy of the sample at the maximum absorption wavelength to decrease to 1/2 of {ε(240)-ε(0)} when the light irradiation is terminated after the light irradiation at 23°C for 240 seconds, was used as an indicator for the color fading speed. The shorter this time, the higher the color fading speed. • [6] Residual rate (A90/A0×100): The obtained photochromic plastic lens was subjected to accelerated deterioration using a xenon weather meter X25 manufactured by Suga Test Instruments Co., Ltd. for 90 hours. Subsequently, the color optical density was evaluated before and after the test, then a color optical density before the test (A0) and a color optical density after the test (A90) were measured, and a ratio (A90/A0) was defined as a residual rate. The residual rate was used as an indicator for a color developing durability. The higher the residual rate, the higher the color developing durability.

[2] = 23°C color optical density (A23): absorbancy difference ε(240)-ε(0) after 240 s light irradiation at 23°C; conditions: 240 s irradiation
Procedure: as §1

[3] = Residual rate (A90/A0×100) after 90 h accelerated deterioration in xenon weather meter X25, color developing durability; conditions: xenon weather meter 90 hours
Procedure: as §1

[4] = 35°C color optical density (A35): absorbancy difference ε(240)-ε(0) after 240 s light irradiation at 35°C; conditions: 240 s irradiation
Procedure: as §1

[5] = Maximum absorption wavelength (λmax) after color development, spectrophotometer MCPD3000
Procedure: as §1

[6] = cured product by kneading method, 1 mm
[7] = photochromic laminate by coating method
[8] = photochromic laminate by coating method, at the maximum absorption wavelength
[9] = binder sheet (binder method), urethaneurea resin photochromic layer between polycarbonate sheets, 0.25 mmol per 100 parts by mass resin
[10] = photochromic cured product by kneading method, 1 mm thick thiourethane, 0.106 mmol per 100 g monomers
[11] = photochromic laminate by coating method, 40 µm photochromic layer on thiourethane lens, 0.25 mmol compound per 100 g monomers

SMILES	A35/A23 *100 (%) ([1]; binder sheet (binder method))	A35/A23 *100 (%) [1, 6] [%]	A35/A23 *100 (%) [1, 7] [%]	A23 (-) ([2]; binder sheet (binder method))	A23 (-) [2, 6]	A23 (-) [2, 8]	Residual rate (%) ([3]; binder sheet (binder method))	Residual rate (%) [3, 6] [%]	Residual rate (%) [3, 7] [%]	A35 (-) ([4]; binder sheet (binder method))	A35 (-) [4, 6]	A35 (-) [4, 7]	Maximum absorption wavelength (nm) [5, 9] [nm]	Maximum absorption wavelength (nm) [5, 10] [nm]	Maximum absorption wavelength (nm) [5, 11]
COc1ccc(C2(c3ccc(OC)cc3)C=Cc3c4c(c5cc(N6CCOc7ccccc76)c(OC)cc5c3O2)-c2ccccc2C4(C)C)cc1 [Example 19 Formula (83)]	67	67	67	1.36 -	1.37 -	1.34 -	91	83	77	0.91 -	0.91 -	0.90 -	515	519	515 nm
CCCOc1ccc(C2(c3ccc(OCCC)cc3)C=Cc3c4c(c5cc(N(C)c6ccc(C)cc6)c(OC)cc5c3O2)-c2ccccc2C4(CCCCOC)CCCCOC)cc1 [Example 20 Formula (85)]	70	70	70	1.23 -	1.24 -	1.22 -	93	85	81	0.86 -	0.87 -	0.85 -	503	507	503 nm
CCCCOc1ccc(C2(c3ccc(OC)cc3)C=Cc3c4c(c5cc(N(C)c6ccccc6)c(OC)cc5c3O2)-c2ccc(-c3ccc(C(C)(C)C)cc3)cc2C4(CC)CC)cc1 (centres unmarked) [Example 45 Formula (94)]	71	–	71	1.24 -	–	1.21 -	92	–	80	0.88 -	–	0.86 -	506	–	506 nm
CCCCC1(CCCC)c2cc([Si](C)(C)C(C)(C)C)ccc2-c2c1c1c(c3cc(OC)c(N(CC)c4ccccc4)cc23)OC(c2ccc(OC)cc2)(c2ccc(OCCC)cc2)C=C1 (centres unmarked) [Example 46 Formula (99)]	–	–	70	–	–	1.29 -	–	–	78	–	–	0.90 -	–	–	504 nm
CCCCCCCCC1(CCCCCCCC)c2cc([Si](c3ccccc3)(c3ccccc3)c3ccccc3)ccc2-c2c1c1c(c3cc(OC)c(N(c4ccccc4)c4ccccc4)cc23)OC(c2ccc(OCCC)cc2)(c2ccc(OCCC)cc2)C=C1 [Example 56 Formula (128)]	–	–	69	–	–	1.80 -	–	–	81	–	–	1.24 -	–	–	508 nm

Continued, values first:

A35/A23 *100 (%) ([1]; binder sheet (binder method))	A35/A23 *100 (%) [1, 6] [%]	A35/A23 *100 (%) [1, 7] [%]	A23 (-) ([2]; binder sheet (binder method))	A23 (-) [2, 6]	A23 (-) [2, 8]	Residual rate (%) ([3]; binder sheet (binder method))	Residual rate (%) [3, 6] [%]	Residual rate (%) [3, 7] [%]	A35 (-) ([4]; binder sheet (binder method))	A35 (-) [4, 6]	A35 (-) [4, 7]	Maximum absorption wavelength (nm) [5, 9] [nm]	Maximum absorption wavelength (nm) [5, 10] [nm]	Maximum absorption wavelength (nm) [5, 11]	SMILES
66	–	66	1.27 -	–	1.25 -	88	–	73	0.84 -	–	0.83 -	521	–	521 nm	COc1ccc(C2(c3ccc(N4CCOCC4)cc3)C=Cc3c4c(c5cc(N6CCOc7ccccc76)c(C)cc5c3O2)-c2ccc(OC)cc2C4(CCCCF)CCCCF)cc1 (centres unmarked) [Example 47 Formula (102)]
65	–	65	1.39 -	–	1.36 -	93	–	77	0.90 -	–	0.88 -	513	–	513 nm	CCCOc1ccc(C2(c3ccc(OCCC)cc3)C=Cc3c4c(c5cc(N6CCOc7cc(C)ccc76)c(OC)cc5c3O2)-c2ccc(-c3ccc(C(F)(F)F)cc3)cc2C4(CCOC)CCOC)cc1 [Example 48 Formula (106)]
–	–	74	–	–	1.82 -	–	–	79	–	–	1.34 -	–	–	518 nm	CCCCCCC1(CCCCCC)c2cc(Oc3ccccc3)ccc2-c2c1c1c(c3cc(OC)c(N(c4ccccc4)c4ccc(C)cc4)cc23)OC(c2ccc(OC)cc2)(c2ccc(OCCCC)cc2)C=C1 (centres unmarked) [Example 52 Formula (119)]
–	–	66	–	–	0.75 - and 0.82 -	–	–	76	–	–	0.49 - and 0.54 -	–	–	457 nm and 592 nm	COCCOCCOCCC1(CCOCCOCCOC)c2cc(-c3ccc(OC(C)C)cc3)ccc2-c2c1c1c(c3cc(OC)c(N(C)c4ccc(C(F)(F)F)cc4)cc23)OC(c2ccc(OC)cc2)(c2ccc(OC)cc2)C=C1 [Example 53 Formula (121)]
